Measured values published in US12233129B2, “Methods and compositions for the treatment of cancer” (priority 2019, dated 2025).
“Also recorded” adds a separate entry of the source.

Key:
[1] = system: HCT-116 p53+/− or p53 −/−; assay: Clonogenic survival assay; type: cell-based, human; conditions: effective doses
Text: (§1) We next performed a clonogenic survival assay (S4E) to determine colony formation in cancer cells in the presence and absence of VTD. […] At the same time, we measured the mot-2, p53, and UBXN2A protein levels in all these cell lines. […] To verify whether VTD-induced cell death is mediated through the UBXN2A-mot-2-p53 axis, we looked at the expression of p53 in the cytoplasm and nucleus of HCT-116 cells following VTD treatment. […] Due to a high cell death in higher doses of VTD, we could not use WB analysis for reliable p53 and UBXN2A detection and quantification. Finally, we checked the effect of VTD on non-cancerous cell lines. We incubated human umbilical vein endothelial cells (HUVECs), which mimic non-cancerous endothelial cells next to tumor cells, with VTD (S4G). […] Due to the different levels of the stress condition, we observed more sensitivity to VTD in LoVo and U2OS cells versus HCT-116 cells. In addition, lack of similar response in normal cells due to the absence of stresses and cytoplasmic mot-2 further explains VTD is therefore a drug that selectively targets cancer cell.
(§2) The viability of cells was calculated as % of control.
(§3) FIG. 17: Induction of apoptosis and in vitro cytotoxicity by VTD in a human cancer cell line with different statuses of p53 and mot-2. (A-D) Cells were treated with VTD for 24, 48, and 72 hours. After incubation, dead cells were washed off, and the remaining attached cells were calculated by counting in five random fields using the Axiovert 200 M inverted microscope and AxioVision software (cell detachment assay). The % of cells attached was calculated as % of control cells. […] The data is shown as mean+SEM of three independent experiments (n=3, *p<0.05). (E-K) Cells were plated for 5 days, and the colonies of cells were treated with different concentration of VTD. The colonies of viable cells were stained with crystal violet dye and absorbance, as an index of measurement of colony forming units, was read at 562 nm (clonogenic survival assay). VTD induced a significant decrease in cell viability in a p53- and differentiation grade manner in HCT-116 poorly differentiated cells (E), HCT 116 p53+/−(F), HCT-116 p53−/− (G), LoVo well-differentiated cells (H), SW-480 (K), and two non-colon cancer cells: HepG2 (I) and U2OS (J). The data is shown as mean+SEM of three independent experiments (n=3, *p<0.05). (L) Determination of endogenous levels of mot-2, UBXN2A, HSC70, and p53 proteins in various cancer cell lines using WB. (M) HCT-116 cells were treated with VTD (10 and 30 μM) and cytoplasmic and nuclear fractions were subjected to WB. HSC70 and Orc-2 antibodies were used as cytoplasmic and nuclear markers, respectively.

HCT-116 [2] = assay: Clonogenic survival assay; type: cell-based, human; conditions: in higher doses
Text: as §1, §2, §3

HepG2 = assay: Clonogenic survival assay; type: cell-based, human; conditions: as low as 30 μM VTD
Text: as §1, §2, §3

LoVo [3] = assay: Clonogenic survival assay; type: cell-based, human; conditions: as low as 30 μM VTD
Text: as §1, §2, §3

SW480 = assay: Clonogenic survival assay; type: cell-based, human; conditions: mutant p53, even at higher doses
Text: as §1, §2, §3

U2OS = assay: Clonogenic survival assay; type: cell-based, human; conditions: as low as 30 μM VTD
Text: as §1, §2, §3

[4] = system: human umbilical vein endothelial cells (HUVECs); assay: Effect on non-cancerous cells; type: cell-based
Text: as §1

[5] = system: UBXN2A silenced clones of HCT-116; assay: Viability (MTT) and cell death (Sytox red flow cytometry) of UBXN2A silenced cells; type: cell-based, human
Method: (§4) We decided to confirm whether VTD-induced tumor suppression is indeed mediated via the UBXN2A-mot-2-p53 axis (FIG. 18H). After initial verification with WB (FIG. 18A), HCT-116 (p53+/+ and p53 −/−) and LoVo were treated with VTD for 24, 48, and 72 hours (FIG. 18B-D). […] We defined this phenomenon as a delayed cytotoxic response, since it occurs through UBXN2A transcription, as previously described for other anti-cancer agents. […] In the second set of experiments, we treated two stable UBXN2A silenced clones of HCT-116 along with controls with VTD. […] Staurosporine-treated cells were used as a positive control (S4F). […] Finally, to understand the contribution of mot-2 to the anti-cancer mechanism of VTD, we used a mot-2 inhibitor known as MKT-077 [7] along with VTD in well-differentiated SW-48 (WT-p53) colon cancer cells for 72 hours. Due to the critical role of mot-2 in the mitochondria, we could not use a silencing strategy for mot-2 in this set of experiments.
as §2
FIG. 18: Veratridine (VTD) functions via the UBXN2A-mot-2-p53 axis. (A) WB confirmed the presence and the absence of p53 protein in HCT-116 p53^(+/+) and HCT-116 p53^(−/−) cancer cell lines, respectively. […] (F) In another set of experiments, UBXN2A-silenced cells were treated with VTD (100, 200, and 300 μM) for 24 hours. […]

[6] = system: SW-48 (WT-p53) colon cancer cells; assay: Cell viability / clonogenic survival with and without mot-2 inhibitor MKT-077; type: cell-based, human; set-up: dose or concentration left out as unconfirmed
Method: as §4
FIG. 18: Veratridine (VTD) functions via the UBXN2A-mot-2-p53 axis. (A) WB confirmed the presence and the absence of p53 protein in HCT-116 p53^(+/+) and HCT-116 p53^(−/−) cancer cell lines, respectively. […] (F) In another set of experiments, UBXN2A-silenced cells were treated with VTD (100, 200, and 300 μM) for 24 hours. Cells were then labelled with Sytox Red followed by flow cytometry analysis. […] (G) SW48 well-differentiated colon cancer cells with WT-p53 were treated with MKT-077 (5 mg/ml), an mot-2 inhibitor, along with VTD for 72 hours. […] (H) This flowchart recapped the sequence of proteins which activate and function upon VTD exposure to decrease cell viability. The data is shown as mean±SEM of three independent experiments (n=3) in triplicate where *p<0.05 using Benferroni's modified student's t-test.

HCT-116 [7] = assay: Annexin V early apoptosis, VTD plus etoposide; type: cell-based, human; conditions: VTD 10-200 μM plus etoposide 5 μM, 24 hours
Method: as §2
(§5) Cells were then stained with Annexin V apoptotic marker.

LoVo [8] = assay: Annexin V early apoptosis, VTD plus etoposide; type: cell-based, human; conditions: VTD 10-200 μM plus etoposide 5 μM, 24 hours
Method: as §2, §5

[9] = system: HCT-116-iRFP cancer cells; assay: HCT-116-iRFP xenograft mouse model; type: in vivo, Hsd:Athymic Nude-Foxn1nu mice; conditions: IP 0.1 mg/kg every other day for 5 weeks versus Ethanol
Method: Five week Hsd:Athymic Nude-Foxn1^nu mice were implanted with 1×10^6 HCT-116-iRFP cancer cells at both flanks followed by IP injection of Ethanol (con) or Veratridine (VTD-0.1 mg/kg) every other day for 5 weeks. Twelve mice were used per treatment with 6 males and 6 females in each group.

COc1ccc(C(=O)O[C@H]2CC[C@@]3(C)[C@@H]4CC[C@H]5[C@]6(O)C[C@H](O)[C@@]7(O)[C@@H](CN8C[C@@H](C)CC[C@H]8[C@@]7(C)O)[C@]6(O)C[C@@]53O[C@]24O)cc1OC [VTD, Veratridine]
p53 dependence of anti-colony formation role [1]: partially p53 dependent | colony formation (HCT-116 [2]): reduces colony formation | number of colonies (HepG2): significantly decreases the number of colonies | number of colonies (LoVo [3]): significantly decreases the number of colonies | number of colonies (SW480): no response | number of colonies (U2OS): significantly decreases the number of colonies | response of non-cancerous HUVEC cells ([4]; first 24 hours): did not respond | response of non-cancerous HUVEC cells ([4]; highest dose of VTD, 48 hours): moderate response | cell viability of UBXN2A silenced cells versus control cells upon VTD ([5]; MTT): greater cell viability than control cells; also recorded: significantly higher as compared to control cells | cell death (Sytox red) of UBXN2A silenced cells upon VTD ([5]; VTD 100, 200 and 300 μM, 24 hours): significant decrease in the cell death; also recorded: significantly decreases cell death | cell viability / colony number ([6]; VTD alone, 72 hours): significantly decreased cell viability in a dose-dependent manner; also recorded: signifcantly decreases the colony number | cell viability / colony number ([6]; VTD with mot-2 inhibitor MKT-077, 72 hours): no significant effect on cell viability | early apoptosis (Annexin V) (HCT-116 [7]): significantly increased the early apoptosis | early apoptosis (Annexin V) (LoVo [8]): significantly increased the early apoptosis | growth of tumor [9]: slowdown growth of tumor
